Columns and labels:
[1] = target: Protein kinase C beta type (Homo sapiens, UniProt P05771); assay: Inhibition of Protein kinase C beta 2
Protein kinase C (PKC) = assay: Inhibition of rat brain PKC
[2] = Selectivity ratio of IC50 of PKA to PKC
[3] = Selectivity ratio of IC50 of PKCalpha to PKCbeta II

Chain of Protein kinase C beta type (P05771 whole entry): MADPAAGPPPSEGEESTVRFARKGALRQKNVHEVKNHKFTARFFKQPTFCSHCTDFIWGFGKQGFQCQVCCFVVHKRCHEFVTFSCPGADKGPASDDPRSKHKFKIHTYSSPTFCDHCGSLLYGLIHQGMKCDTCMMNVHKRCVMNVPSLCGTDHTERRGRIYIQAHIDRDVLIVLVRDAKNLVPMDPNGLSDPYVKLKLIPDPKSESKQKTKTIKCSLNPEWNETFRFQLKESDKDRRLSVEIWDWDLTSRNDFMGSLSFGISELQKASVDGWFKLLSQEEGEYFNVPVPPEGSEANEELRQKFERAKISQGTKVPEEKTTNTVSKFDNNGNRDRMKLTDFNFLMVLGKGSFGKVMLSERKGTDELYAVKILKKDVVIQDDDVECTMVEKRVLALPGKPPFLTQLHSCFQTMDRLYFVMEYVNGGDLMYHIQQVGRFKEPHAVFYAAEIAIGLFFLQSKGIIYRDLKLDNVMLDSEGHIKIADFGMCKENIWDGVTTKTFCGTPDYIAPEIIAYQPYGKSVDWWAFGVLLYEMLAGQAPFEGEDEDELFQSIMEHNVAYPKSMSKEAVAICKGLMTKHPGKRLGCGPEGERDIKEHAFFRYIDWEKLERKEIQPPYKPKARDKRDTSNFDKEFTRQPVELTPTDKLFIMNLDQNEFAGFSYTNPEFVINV

IC50 [1]: 270 nM
IC50 (Protein kinase C (PKC)): 6400 nM
Ratio [2]: > 10000
Ratio [3]: 25
SMILES: O=C1NC(=O)C2=C1c1cn(c3ccccc13)CCCOC(CO)CCn1cc2c2ccccc21 (centres undefined)

— ChEMBL document CHEMBL1128817, “Synthesis of bisindolylmaleimide macrocycles” (Bioorg Med Chem Lett, 1995)
